Data from ChEMBL document CHEMBL4422690, “Synthesis of Rosmarinic Acid Amides as Antioxidative and Hypoglycemic Agents” (J Nat Prod, 2019).

What was measured:
[1] = Antioxidant activity assessed as trolox equivalents of AAPH radical scavenging activity at 50 uM preincubated for 10 mins followed by AAPH addition and measured every min for 30 mins by ORAC-FL assay; assay type: functional
[2] = Antioxidant activity assessed as DPPH radical scavenging activity incubated for 1.5 hrs under dark condition by spectrometric method; assay type: functional
[3] = Inhibition of yeast alpha-glucosidase using pNP-alpha-G as substrate measured after 30 mins; design: species or system Saccharomyces cerevisiae
[4] = Mixed-type inhibition of yeast alpha-glucosidase assessed as […] dissociation constant using varying levels of pNP-alpha-G as substrate incubated for 30 mins and measured at 1 min interval for 30 mins by Lineweaver-burk plot analysis; design: species or system Saccharomyces cerevisiae
[5] = Mixed-type inhibition of yeast alpha-glucosidase assessed as enzyme-substrate-inhibitor dissociation constant using varying levels of pNP-alpha-G as substrate incubated for 30 mins and measured at 1 min interval for 30 mins by Lineweaver-burk plot analysis; design: species or system Saccharomyces cerevisiae

| SMILES | Activity [1] | IC50 [2] | IC50 [3] | Ki [4] | Ki [5] |
| --- | --- | --- | --- | --- | --- |
| CN(C)CCCNC(=O)[C@@H](Cc1ccc(O)c(O)c1)OC(=O)/C=C/c1ccc(O)c(O)c1 | 2.64 µMequiv/µM | 9.3 µM | 65.5 µM | – | – |
| CCN(CC)CCCNC(=O)[C@@H](Cc1ccc(O)c(O)c1)OC(=O)/C=C/c1ccc(O)c(O)c1 | 2.81 µMequiv/µM | 8.9 µM | 42.3 µM | – | – |
| O=c1c(O)c(-c2ccc(O)c(O)c2)oc2cc(O)cc(O)c12 [QUERCETIN] | 2.11 to 2.19 µMequiv/µM | 15.6 to 16.8 µM | – | – | – |
| O=C(/C=C/c1ccc(O)c(O)c1)O[C@H](Cc1ccc(O)c(O)c1)C(=O)O [ROSMARINIC ACID] | 2.1 µMequiv/µM | 11 µM | 134 µM | – | – |
| CCCCNC(=O)[C@@H](Cc1ccc(O)c(O)c1)OC(=O)/C=C/c1ccc(O)c(O)c1 | 2.72 µMequiv/µM | 8.3 µM | 106 µM | – | – |
| CC(C)CNC(=O)[C@@H](Cc1ccc(O)c(O)c1)OC(=O)/C=C/c1ccc(O)c(O)c1 | 2.15 µMequiv/µM | 11.9 µM | 108 µM | – | – |
| O=C(/C=C/c1ccc(O)c(O)c1)O[C@H](Cc1ccc(O)c(O)c1)C(=O)NCCc1ccccc1 | 3.07 µMequiv/µM | 10.4 µM | 87.7 µM | – | – |
| O=C(/C=C/c1ccc(O)c(O)c1)O[C@H](Cc1ccc(O)c(O)c1)C(=O)NCc1ccccc1 | 2.79 µMequiv/µM | 8.2 µM | 111 µM | – | – |
| O=C(/C=C/c1ccc(O)c(O)c1)O[C@H](Cc1ccc(O)c(O)c1)C(=O)NCCN1CCCCC1 | 2.84 µMequiv/µM | 10.1 µM | 53.3 µM | – | – |
| Cc1ccc(CNC(=O)[C@@H](Cc2ccc(O)c(O)c2)OC(=O)/C=C/c2ccc(O)c(O)c2)cc1 | 2.62 µMequiv/µM | 10.1 µM | 109 µM | – | – |
| O=C(/C=C/c1ccc(O)c(O)c1)O[C@H](Cc1ccc(O)c(O)c1)C(=O)NCCc1ccc(O)cc1 | 3.28 µMequiv/µM | 7.1 µM | 74.9 µM | – | – |
| CN1CCN(CCNC(=O)[C@@H](Cc2ccc(O)c(O)c2)OC(=O)/C=C/c2ccc(O)c(O)c2)CC1 | 2.77 µMequiv/µM | 9.7 µM | 35.2 µM | 22.8 µM | 34.8 µM |
| C[C@H]1O[C@H](O[C@H]2[C@H](O)[C@@H](O)[C@@H](O[C@H]3[C@H](O)[C@@H](O)C(O)O[C@@H]3CO)O[C@@H]2CO)[C@H](O)[C@@H](O)[C@@H]1N[C@H]1C=C(CO)[C@@H](O)[C@H](O)[C@H]1O (stereo partly drawn) [ACARBOSE] | – | – | 269 to 285 µM | – | – |
